Consider seven molecules from patent publication US11766434B2, “Pyrimidinone derivatives as CDC7 inhibitors” (Cancer Research Technology Limited, priority 2016, dated 2023).

The target in assay [1] is T1, Cdc7 (Homo sapiens, UniProt O00311). The assay is described as follows: Cdc7 cell pharmacodynamics assay Method 2: pS40MCM2 levels in HCT116 cells. It is filed as cell-based. Set-up: endogenous in cells. The following applies: 18 hours treatment, read-out: Biomarker Method 2 (pEC50) (converted). From the text:
This protocol describes a method to investigate the inhibition of Cdc7 activity by measuring pS40MCM2 levels in cells, after treatment with compounds.
• HCT116 cells (ATCC, #CCL-247) • McCoys 5A with L-glutamine (Cellgro, #10-050-CV) • 10% FCS (Cellgro, #35-010-CV) • D-PBS without CaCl2 and MgCl2 (Cellgro, #21-031-CV) • Trypsin/EDTA (Cellgro, #25-052-CL) • BSA (Calbiochem, 126593) • Cell Extraction Buffer (Invitrogen FNN0011) • Protease inhibitor cocktail (Sigma P-2714) • PMSF 0.3M stock in DMSO (Sigma P7626) • Antibody—rabbit pMCM2 Ser40 (Abeam, AB133243) • Antibody—goat MCM2 (Bethyl #A300-122A) • Antibody—goat Anti Rabbit IgG HRP (Thermo, 31462) • SuperSignal ELISA Pico Chemiluminescent Substrate (Perbio Science UK Ltd 37069) • 10×PBS (Growcells, MRGF-6236) • Triton X100 (Sigma, P-T8787) • DMSO (Fisher, D128-1) • 2-Propanol (J. T. Baker, 9095-03) Method • Seed 1×10^6 HCT116 cells into each of two 175 cm^2 flask containing 30 mL Cell Growth Media and incubate at 37° C., 5% CO2 for 3 days. • Harvest the cells from one T175 cm^2 flask and count. • Dilute with Cell Growth Media to a cell density of 2×10^5. Dispense 100 μL to each well (20,000 HCT116 cells/well) of TC treated 96-well plate(s). • Allow cells to settle overnight in incubator set at 37° C. and 5% CO2. • Cell treatment: Transfer 0.25 μL/well from the compound plate to the wells of the cell plate(s). This is a 1:400 dilution of compound in the assay. • Once all cells are treated place the cells back to the incubator and incubate for 18 hours. • Dilute the capture antibody (total MCM2 #A300-122A) 1 in 250 in the required volume of PBS (5 mL per assay plate, plus 5 mL for dead volume) and add 50 μL to each well of a Hybond plate except wells A12 & B12. Seal the plate and incubate at room temperature fora minimum of 2 hours. • Defrost aliquot of Invitrogen Cell Extraction Buffer (FNN0011) on ice and supplement with appropriate volume of both Sigma protease inhibitor cocktail (P-2714) and PMSF (final cone 1 mM from a 1 M stock in DMSO). • After the 6 hour or 18 hour cell treatment time, tap out the media from the assay plates and place them in the −70° C. freezer for at least 5 minutes. • Flick out the remaining liquid in the previously prepared capture Ab plate(s) and add 200 μL 2% BSA per well. Incubate for 1 hour at room temperature. • Remove plates from freezer and add 20 μL of ice cold complete lysis buffer. Incubate cells for 30 minutes at 4° C. • Add 30 μL per well 2% BSA • At the end of the 1 hour incubation, wash the Capture/ELISA plate(s) with Wash Buffer on the BioTek plate washer. • Transfer 40 μL per well of the lysis plate(s) to the same wells in the Capture/ELISA plate. Incubate cells overnight at 4° C. • At the end of the overnight incubation, wash the ELISA plate(s) with Wash Buffer on BioTek plate washer. • Prepare Detection Antibody Buffer and dispense 50 μL to all wells of ELISA plate(s) except wells G1 & H1. Cover plate and incubate at room temperature for 2 hours with gentle shaking. • At the end of the 2 hour incubation, wash the ELISA plate(s) with Wash Buffer on the BioTek plate washer. • Prepare the Conjugated Antibody Buffer and dispense 50 μL to all wells of ELISA plate(s). • Cover the plate and incubate at room temperature for 1 hour with gentle shaking. • At the end of the 1 hour incubation, wash the ELISA plate(s) with Wash Buffer on the BioTek plate washer. • Prepare Substrate Buffer and dispense 50 μL to all wells of ELISA plate(s). • Incubate for a minimum of 10 minutes and read plates on the EnVision 2100 Multilabel Reader (Mirror: Luminescence (404) & Luminescence 700 (212); Measurement Height: 6.5 mm; Measurement Time: 0.2 s). Method 3

In a further assay the target is Cdc7/Dbf4 (Homo sapiens, UniProt O00311). The assay can be described thus: Cdc7 biochemical assay Method 2: Cdc7/Dbf4 Enzyme TR-FRET Assay measuring pS40MCM2. The following applies: pS40 MCM2 peptide, 1 μM ATP, 25° C., 120 minutes, read-out: Biochemical Method 2 (pIC50) (converted). How it is done:
This protocol describes a method for assaying a compounds' ability to inhibit Cdc7 activity by measuring pS40MCM2 levels in a Cdc7/Dbf4 Enzyme TR-FRET Assay.
2.5 nM Cdc7/Dbf4 was incubated with 100 nM of biotin-labelled peptide 35-TDALTS(pS)PGRDLP in the presence of 1 μM ATP at 25° C. for 120 minutes. The phosphorylation of the peptide was detected using TR-FRET. Anti-Mcm2 (pS40) antibody, Terbium anti-rabbit secondary antibody and Streptavidin-Alexa Fluor488 form the detection system.
(In general: Time-resolved FRET reads energy transfer from a long-lived donor to a nearby acceptor.)

In another assay the target is Cdc7/ASK (Homo sapiens, UniProt O00311). The assay is described as follows: Cdc7 biochemical assay Method 1: 384 well ELISA, MCM2 whole protein substrate, Phospho MCM2 (S53) antibody. Set-up: purchased. The following applies: ATP 2 μM, 90 minutes, read-out: Biochemical method 1 (pIC50) (converted). The gist of the method:
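Commercial Cdc7/ASK phosphorylates plate-bound MCM2 with 2 μM ATP in Tris pH 8.5/MgCl2/DTT, 4% DMSO, 90 min at room temperature. Phospho-MCM2 (S53) detected by antibody ELISA with AP/PNPP absorbance. Inhibition normalised to DMSO and no-enzyme controls; IC50 from curve fit.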
(In general: ELISA stands for enzyme-linked immunosorbent assay.)

Assay [2] deals with T1, Cdc7. The assay can be described thus: Cdc7 cell pharmacodynamics assay Method 1: pS53MCM2 levels in HCT116 cells. Format: cell-based. Set-up: endogenous in cells. The following applies: 6 hours treatment, read-out: Biomarker Method 1 (pEC50) (converted). From the text:
This protocol describes a method to investigate the inhibition of Cdc7 activity of compounds by measuring pS53MCM2 levels in cells after treatment.
• HCT116 cells (wild type P53 positive) • McCoys 5A media (PAA Laboratories Ltd, E15-022) • 10% FCS (Sera Laboratories International Ltd, EU000F Batch: 108005) • 100× L-Glutamine (Invitrogen, 25030-024) • D-PBS without CaCl2 and MgCl2 (Invitrogen, ref. 14190-094) • Trypsin/EDTA (Invitrogen 25300-054) • 2% BSA in PBS • Cell Extraction Buffer (Invitrogen FNN0011) • Protease inhibitor cocktail (Sigma P-2714) • PMSF 0.3M stock in DMSO (Sigma P7626) • Antibody—rabbit pMCM2 Ser53 (Bethyl #A300-756A) • Antibody—goat MCM2 (Bethyl #A300-122A) • Antibody—goat Anti Rabbit IgG HRP (Perbio Science UK Ltd 31462) • 1×PBS • FACE Wash buffer (0.02% Triton X100 in 1×PBS) • SuperSignal ELISA Pico Chemiluminescent Substrate (Perbio Science UK Ltd 37070) Method • 72 hours prior to the start of the experiment plate 1×10^6 HCT116 cells in a 150 cm^2 flask in complete McCoys 5A media (+10% FCS+1× L-glutamine). • Plate 20,000 HCT116 cells per well in standard TC treated 96 well plate in 100 μL complete McCoys 5A media. • Allow cells to settle overnight in incubator set at 37° C. and 5% CO2. • Remove intermediate plate from fridge and place at 37° C. overnight to allow to equilibrate. • Cell treatment: cell assay plate 100 μL; daughter to cell transfer volume 3.33 μL; daughter volume 45 μL; mother plate to daughter volume 5 μL. • Once all cells are treated remove the cells to the incubator and incubate for 6 hours. • Dilute the capture antibody (total MCM2 #A300-122A) 1 in 250 in the required volume of PBS (5 mL per assay plate) and add 50 μL to each well of a Hybond plate excluding wells 12E to 12H. In these wells add 50 μL PBS. Seal the plate and incubate at room temperature fora minimum of 2 hours. • Defrost aliquot of Invitrogen Cell Extraction Buffer (FNN0011) on ice and supplement with appropriate volume of both Sigma protease inhibitor cocktail (P-2714) and PMSF (final cone 1 mM from a […] in DMSO). • After the 6 hour cell treatment time tap out the media from the assay plates and place them in the −70° C. freezer for at least 5 minutes. • Remove plates from freezer and add 20 μL of ice cold complete lysis buffer on ice. Incubate cells for 30 minutes at 4° C. • Add 80 μL per well 2% BSA. • Transfer 80 μL from the lysis plate to the same wells in the capture/ELISA plate. Cover with plate seal and incubate plates overnight at 4° C. • Wash plates with PBS, remove any residual remaining liquid and add 50 μL per well of pMCM2 Ser53 antibody (#A300-756A) diluted 1 in 100 in 2% BSA. Cover plate and incubate at room temperature for 2 hours with gentle shaking. • Wash plates with PBS, remove any residual remaining liquid and Incubate with 50 μL goat anti rabbit antibody (1 in 800 dilution in 2% BSA) for 1 hour at room temperature. • Wash plates with PBS, remove any residual remaining liquid and add 50 μL mixed SuperSignal Pico substrate. • Incubate each plate for 5 minutes at room temperature shielding the plates from direct light (with a cover plate). Read plates with the luminescent detection. Method 2

T1 sequence (O00311 whole entry): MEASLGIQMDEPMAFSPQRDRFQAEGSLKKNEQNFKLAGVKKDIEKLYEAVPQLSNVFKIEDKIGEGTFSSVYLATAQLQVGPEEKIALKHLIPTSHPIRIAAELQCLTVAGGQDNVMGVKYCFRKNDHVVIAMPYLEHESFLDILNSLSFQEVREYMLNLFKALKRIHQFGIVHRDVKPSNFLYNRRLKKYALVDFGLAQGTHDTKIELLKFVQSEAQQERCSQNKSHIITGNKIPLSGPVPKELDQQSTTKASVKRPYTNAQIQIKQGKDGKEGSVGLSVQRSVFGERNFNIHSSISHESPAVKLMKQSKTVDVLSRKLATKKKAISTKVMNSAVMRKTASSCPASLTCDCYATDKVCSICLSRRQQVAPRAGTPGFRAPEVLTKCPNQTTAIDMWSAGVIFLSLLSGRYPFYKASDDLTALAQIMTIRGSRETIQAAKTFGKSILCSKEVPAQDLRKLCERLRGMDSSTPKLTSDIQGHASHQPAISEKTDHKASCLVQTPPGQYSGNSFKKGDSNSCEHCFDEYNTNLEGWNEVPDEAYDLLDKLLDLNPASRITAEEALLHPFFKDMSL
T1 sequence (Q9UBU7 whole entry partner): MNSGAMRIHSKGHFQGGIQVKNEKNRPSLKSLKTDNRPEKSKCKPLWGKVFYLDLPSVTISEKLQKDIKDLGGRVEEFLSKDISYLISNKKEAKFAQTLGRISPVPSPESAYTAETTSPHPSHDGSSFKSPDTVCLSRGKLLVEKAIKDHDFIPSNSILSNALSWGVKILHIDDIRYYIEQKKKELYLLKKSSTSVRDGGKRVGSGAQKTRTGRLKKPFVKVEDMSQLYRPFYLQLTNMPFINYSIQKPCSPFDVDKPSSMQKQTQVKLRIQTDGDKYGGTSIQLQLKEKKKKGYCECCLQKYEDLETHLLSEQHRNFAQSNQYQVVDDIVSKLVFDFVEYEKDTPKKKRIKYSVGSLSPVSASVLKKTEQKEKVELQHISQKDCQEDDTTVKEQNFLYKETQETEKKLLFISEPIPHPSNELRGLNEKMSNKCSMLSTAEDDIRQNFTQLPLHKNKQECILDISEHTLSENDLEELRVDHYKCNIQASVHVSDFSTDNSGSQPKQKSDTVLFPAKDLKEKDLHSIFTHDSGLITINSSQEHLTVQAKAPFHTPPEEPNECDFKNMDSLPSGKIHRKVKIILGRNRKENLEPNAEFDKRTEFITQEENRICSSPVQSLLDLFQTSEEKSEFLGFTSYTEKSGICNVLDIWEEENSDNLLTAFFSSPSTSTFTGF
Cdc7/Dbf4, sequence (O00311 whole entry): as the sequence (O00311 whole entry) above
Cdc7/Dbf4, sequence (Q9UBU7 whole entry partner): as the sequence (Q9UBU7 whole entry partner) above
Cdc7/ASK, sequence (O00311 whole entry): as the sequence (O00311 whole entry) above
Cdc7/ASK, sequence (Q9UBU7 whole entry partner): as the sequence (Q9UBU7 whole entry partner) above

In the case of `CC1CNCCN1c1nc(-c2c[nH]c3ncccc23)[nH]c(=O)c1Cl` (stereo in doubt) [Compound 55, 5-chloro-4-[(2R)-2-methylpiperazin-1-yl]-2-(1H-pyrrolo[2,3-b]pyridin-3-yl)-1H-pyrimidin-6-one 2,2,2-trifluoroacetic acid], at Cdc7 [1], the EC50 was 100 nM. With `Cc1[nH]ncc1-c1nc(C2CCOCC2)c(Cl)c(=O)[nH]1` [Compound 16, 5-chloro-2-(3-methyl-1H-pyrazol-4-yl)-4-tetrahydropyran-4-yl-1H-pyrimidin-6-one], the IC50 was 7.24 nM at Cdc7/Dbf4 and 2.75 nM on Cdc7/ASK. Consider `Cc1ncsc1-c1nc(N2CCN[C@@H](C(C)C)C2)c(Cl)c(=O)[nH]1` [Compound 39, 5-chloro-4-[(3S)-3-isopropylpiperazin-1-yl]-2-(4-methylthiazol-5-yl)-1H-pyrimidin-6-one], for which the IC50 on Cdc7/Dbf4 is 7.41 nM; on Cdc7/ASK it was 21.4 nM. Further, on Cdc7 [2], the EC50 was 339 nM. Consider `CC1(C)CNCCN1c1nc(-c2cn[nH]c2C(F)(F)F)[nH]c(=O)c1Cl` [Compound 46, 5-chloro-4-(2,2-dimethylpiperazin-1-yl)-2-[5-(trifluoromethyl)-1H-pyrazol-4-yl]-1H-pyrimidin-6-one], for which the IC50 at Cdc7/Dbf4 is 1.66 nM. For the same molecule, the EC50 on Cdc7 [1] is 151 nM. Consider `Cc1[nH]ncc1-c1nc(N2CCNC[C@H]2C)c(Cl)c(=O)[nH]1` [Compound 48, 5-chloro-4-[(2R)-2-methylpiperazin-1-yl]-2-(5-methyl-1H-pyrazol-4-yl)-1H-pyrimidin-6-one], for which, on Cdc7/Dbf4, the IC50 was 2.24 nM. The EC50 on Cdc7 [1] was 457 nM. Consider `Cc1[nH]ncc1-c1nc(N2CCOCC2)c(Cl)c(=O)[nH]1` [Compound 51, 5-chloro-2-(5-methyl-1H-pyrazol-4-yl)-4-morpholino-1H-pyrimidin-6-one], for which the IC50 on Cdc7/Dbf4 is 5.89 nM. Turning to `C[C@@H]1COCCN1c1nc(-c2cnn3ccccc23)[nH]c(=O)c1Cl` [Compound 54, 5-chloro-4-[(3R)-3-methylmorpholin-4-yl]-2-pyrazolo[1,5-a]pyridin-3-yl-1H-pyrimidin-6-one], on Cdc7/Dbf4, the IC50 was 72.4 nM.
